The record followed here is ChEMBL document CHEMBL1153650, “Imidazole and triazole substituted ether phospholipids: potent antitumor agents” (Bioorg Med Chem Lett, 1997).

One may read the IC50 as the concentration that gives 50% inhibition.

Assay type in all cases: functional, cell-based
One experiment concerns FHC. In words: In vitro inhibition of FHC normal human colon cell proliferation.
In the next experiment the test system is HL-60. In words: In vitro inhibition of HL-60 human promyelocytic leukemia cell proliferation.
For a further experiment, the system named is MCF7. In words: In vitro inhibition of estrogen receptor positive MCF-7 human breast cancer cell proliferation.
The subject of the next experiment is HT-29. In words: In vitro inhibition of the HT-29 transformed human colon cell proliferation.
The next experiment has as its system MDA-MB-231. In words: In vitro inhibition of estrogen receptor negative MDA-MB-231 human breast cancer cell proliferation.

For `CCCCCCCCCCCCCCCCCCOCC(CCP(=O)([O-])OCC[N+](C)(C)C)n1ccnc1` (configuration not stated), the IC50 in the experiment on FHC was determined as 5000 nM; with HL-60 it was 2000 nM; in the experiment with MCF7, 3000 nM; with HT-29, 2000 nM; in the experiment on MDA-MB-231 it was 4500 nM.

As to `CCCCCCCCCCCCCCCCCCOCC(CCP(=O)([O-])OCC[N+](C)(C)C)n1cncn1` (configuration not stated), the IC50 was found to be 3000 nM with HL-60, 3000 nM with MCF7 and 6000 nM in the experiment with MDA-MB-231.

Turning to `CCCCCCCCCCCCCCCCCCOCC(COP(=O)([O-])OCC[N+](C)(C)C)OC` (configuration not stated) [EDELFOSINE], the IC50 in the experiment on FHC turned out to be 45000 nM; in the experiment with HL-60 it was 2000 nM; in the experiment on HT-29 it was 2000 nM; in the experiment on MDA-MB-231, 5000 nM.
